# How the values were obtained:
# Format in all cases: in vivo
# [1] = tested on: corn (Zea mays); assay: Test B pre-/postemergence plant response; settings: for Corn plant response rating (0 to 100 scale): 62 g ai/ha, 0 is no effect, 13 to 15 days
# How it was run: (§1)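 Seeds sown in loam–sand blend were treated preemergence, and plants at 2–18 cm (1- to 4-leaf stage) in peat-based medium were treated postemergence; compounds were formulated in non-phytotoxic solvent with surfactant. After 13–15 days in greenhouse, response was visually rated against controls, 0 (no effect) to 100 (complete control).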
# [2] = tested on: soybean (Glycine max); assay: Test B pre-/postemergence plant response; settings: for Soybean plant response rating (0 to 100 scale): 62 g ai/ha, postemergence, 0 is no effect, 100 is complete control, 13 to 15 days; for Plant response rating, Soybean: Postemergence, scale 0 to 100 (0 no effect, 100 complete control)
# How it was run: as §1
# [3] = tested on: johnsongrass (Sorghum halepense); assay: Test B pre-/postemergence plant response; settings: for Johnsongrass plant response rating (0 to 100 scale): 62 g ai/ha, 0 is no effect, 13 to 15 days
# How it was run: as §1
# [4] = tested on: green foxtail (Setaria viridis); assay: Test B pre-/postemergence plant response; settings: for Foxtail, Green plant response rating (0 to 100 scale): 62 g ai/ha, 0 is no effect, 13 to 15 days
# How it was run: as §1
# [5] = tested on: cocklebur (Xanthium strumarium); assay: Test B pre-/postemergence plant response; settings: for Cocklebur plant response rating (0 to 100 scale): 62 g ai/ha, 0 is no effect, 13 to 15 days
# How it was run: as §1
# [6] = tested on: wild oat (Avena fatua); assay: Test B pre-/postemergence plant response; settings: for Oat, Wild plant response rating (0 to 100 scale): 62 g ai/ha, 0 is no effect, 13 to 15 days
# How it was run: as §1
# [7] = tested on: bermudagrass (Cynodon dactylon); assay: Test B pre-/postemergence plant response; settings: for Bermudagrass plant response rating (0 to 100 scale): 62 g ai/ha, 0 is no effect, 13 to 15 days
# How it was run: as §1
# [8] = tested on: giant foxtail (Setaria faberii); assay: Test B pre-/postemergence plant response; settings: for Foxtail, Giant plant response rating (0 to 100 scale): 62 g ai/ha, 0 is no effect, 13 to 15 days
# How it was run: as §1
# [9] = tested on: pigweed (Amaranthus retroflexus); assay: Test B pre-/postemergence plant response; settings: for Pigweed plant response rating (0 to 100 scale): 62 g ai/ha, 0 is no effect, 13 to 15 days
# How it was run: as §1
# [10] = tested on: lambsquarters (Chenopodium album); assay: Test B pre-/postemergence plant response; settings: for Lambsquarters plant response rating (0 to 100 scale): 62 g ai/ha, 0 is no effect, 13 to 15 days
# How it was run: as §1
# [11] = tested on: ragweed (common ragweed, Ambrosia elatior); assay: Test B pre-/postemergence plant response; settings: for Ragweed plant response rating (0 to 100 scale): 62 g ai/ha, postemergence, 0 is no effect, 100 is complete control, 13 to 15 days; for Plant response rating, Ragweed: Postemergence, scale 0 to 100 (0 no effect, 100 complete control)
# How it was run: as §1
# [12] = tested on: kochia (Kochia scoparia); assay: Test B pre-/postemergence plant response; settings: for Kochia plant response rating (0 to 100 scale): 62 g ai/ha, 0 is no effect, 13 to 15 days
# How it was run: as §1
# [13] = tested on: umbrella sedge (Cyperus difformis); assay: Test B flooded paddy test; settings: for Plant response rating, Flood, Sedge, Umbrella: 250 g ai/ha, flooded paddy test, visual rating on 0 to 100 scale (0 no effect, 100 complete control) after 13 to 15 days; for Plant response rating, Sedge, Umbrella: Flood (flooded paddy test), 13 to 15 days; for Sedge, Umbrella plant response rating: Flood, 31 g ai/ha, scale 0 to 100 (0 no effect, 100 complete control)
# How it was run: (§2)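 Flooded-pot test: water raised to 3 cm above soil when treating, compound put in the water, level unchanged thereafter. Plants were at 2 leaves. Readout after 13 to 15 days, visual, relative to controls; 0 signifies no effect and 100 complete control.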
# [14] = tested on: barnyardgrass (Echinochloa crus-galli); assay: Test B flooded paddy test; settings: for Plant response rating, Flood, Barnyardgrass: 250 g ai/ha, flooded paddy test, visual rating on 0 to 100 scale (0 no effect, 100 complete control) after 13 to 15 days; for Plant response rating, Barnyardgrass: Flood (flooded paddy test), 13 to 15 days; for Barnyardgrass plant response rating: Flood, 31 g ai/ha, scale 0 to 100 (0 no effect, 100 complete control)
# How it was run: as §2
# [15] = tested on: ducksalad (Heteranthera limosa); assay: Test B flooded paddy test; settings: for Plant response rating, Flood, Ducksalad: 250 g ai/ha, flooded paddy test, visual rating on 0 to 100 scale (0 no effect, 100 complete control) after 13 to 15 days; for Plant response rating, Ducksalad: Flood (flooded paddy test), 13 to 15 days; for Ducksalad plant response rating: Flood, 31 g ai/ha, scale 0 to 100 (0 no effect, 100 complete control)
# How it was run: as §2
# [16] = tested on: rice (Oryza sativa); assay: Test B flooded paddy test; settings: for Plant response rating, Flood, Rice: 250 g ai/ha, flooded paddy test, visual rating on 0 to 100 scale (0 no effect, 100 complete control) after 13 to 15 days; for Plant response rating, Rice: Flood (flooded paddy test), 13 to 15 days; for Rice plant response rating: Flood, 31 g ai/ha, scale 0 to 100 (0 no effect, 100 complete control)
# How it was run: as §2
# [17] = 31 g ai/ha, postemergence, scale 0 to 100, 0 is no effect, 100 is complete control
# [18] = postemergence, 100 is complete control
# [19] = Postemergence, 125 g ai/ha, scale 0 to 100 (0 no effect, 100 complete control)
# [20] = Postemergence, 250 g ai/ha, scale 0 to 100 (0 no effect, 100 complete control)
# [21] = 62 g ai/ha, scale of 0 to 100 where 0 is no effect and 100 is complete control
# [22] = 125 g ai/ha, scale 0 to 100, 0 is no effect, 100 is complete control
compound,measurement,setting,value
COCCn1c(-c2ccco2)ncc(C(=O)C2=C(O)CCCC2=O)c1=O [Compound 111],"Plant response rating, Corn",[1]; [17],10
same,Corn plant response rating (0 to 100 scale),[1]; [18],45
same,"Plant response rating, Corn",[1]; [19],55
same,"Plant response rating, Corn",[1]; [20],60
same,Soybean plant response rating (0 to 100 scale),[2],80
same,"Plant response rating, Soybean",[2]; 125 g ai/ha,95
same,"Plant response rating, Soybean",[2]; 250 g ai/ha,98
same,"Plant response rating, Johnsongrass",[3]; [17],10
same,Johnsongrass plant response rating (0 to 100 scale),[3]; [18],15
same,"Plant response rating, Johnsongrass",[3]; [19],20
same,"Plant response rating, Johnsongrass",[3]; [20],40
same,"Plant response rating, Foxtail, Green",[4]; [17],40
same,"Foxtail, Green plant response rating (0 to 100 scale)",[4]; [18],60
same,"Plant response rating, Foxtail, Green",[4]; [19],65
same,"Plant response rating, Foxtail, Green",[4]; [20],70
same,"Plant response rating, Cocklebur",[5]; [17],98
same,Cocklebur plant response rating (0 to 100 scale),[5]; [18],98
same,"Plant response rating, Cocklebur",[5]; [19],100
same,"Plant response rating, Cocklebur",[5]; [20],100
same,"Plant response rating, Oat, Wild",[6]; [17],0
same,"Oat, Wild plant response rating (0 to 100 scale)",[6]; [18],0
same,"Plant response rating, Oat, Wild",[6]; [19],0
same,"Plant response rating, Oat, Wild",[6]; [20],10
same,"Plant response rating, Bermudagrass",[7]; [17],95
same,Bermudagrass plant response rating (0 to 100 scale),[7]; [18],100
same,"Plant response rating, Bermudagrass",[7]; [19],100
same,"Plant response rating, Bermudagrass",[7]; [20],100
same,"Plant response rating, Foxtail, Giant",[8]; [17],60
same,"Foxtail, Giant plant response rating (0 to 100 scale)",[8]; [18],65
same,"Plant response rating, Foxtail, Giant",[8]; [19],65
same,"Plant response rating, Foxtail, Giant",[8]; [20],70
same,"Plant response rating, Pigweed",[9]; [17],95
same,Pigweed plant response rating (0 to 100 scale),[9]; [18],100
same,"Plant response rating, Pigweed",[9]; [19],100
same,"Plant response rating, Pigweed",[9]; [20],100
same,"Plant response rating, Lambsquarters",[10]; [17],98
same,Lambsquarters plant response rating (0 to 100 scale),[10]; [18],98
same,"Plant response rating, Lambsquarters",[10]; [19],100
same,"Plant response rating, Lambsquarters",[10]; [20],100
same,Ragweed plant response rating (0 to 100 scale),[11],95
same,"Plant response rating, Ragweed",[11]; 125 g ai/ha,98
same,"Plant response rating, Ragweed",[11]; 250 g ai/ha,98
same,"Plant response rating, Kochia",[12]; [17],80
same,Kochia plant response rating (0 to 100 scale),[12]; [18],100
same,"Plant response rating, Kochia",[12]; [19],100
same,"Plant response rating, Kochia",[12]; [20],100
same,"Plant response rating, Flood, Sedge, Umbrella",[13],85
same,"Plant response rating, Sedge, Umbrella",[13]; [21],75
same,"Plant response rating, Sedge, Umbrella",[13]; [22],80
same,"Sedge, Umbrella plant response rating",[13],0
same,"Plant response rating, Flood, Barnyardgrass",[14],60
same,"Plant response rating, Barnyardgrass",[14]; [21],40
same,"Plant response rating, Barnyardgrass",[14]; [22],50
same,Barnyardgrass plant response rating,[14],0
same,"Plant response rating, Flood, Ducksalad",[15],75
same,"Plant response rating, Ducksalad",[15]; [21],30
same,"Plant response rating, Ducksalad",[15]; [22],75
same,Ducksalad plant response rating,[15],30
same,"Plant response rating, Flood, Rice",[16],30
same,"Plant response rating, Rice",[16]; [21],0
same,"Plant response rating, Rice",[16]; [22],0
same,Rice plant response rating,[16],0
O=C1CCCC(O)=C1C(=O)c1cnc(-c2cccs2)n(CC2CCCO2)c1=O (stereo not shown) [Compound 109],"Plant response rating, Corn",[1]; [17],0
same,Corn plant response rating (0 to 100 scale),[1]; [18],15
same,"Plant response rating, Corn",[1]; [19],60
same,"Plant response rating, Corn",[1]; [20],60
same,Soybean plant response rating (0 to 100 scale),[2],95
same,"Plant response rating, Soybean",[2]; 125 g ai/ha,98
same,"Plant response rating, Soybean",[2]; 250 g ai/ha,100
same,"Plant response rating, Johnsongrass",[3]; [17],5
same,Johnsongrass plant response rating (0 to 100 scale),[3]; [18],30
same,"Plant response rating, Johnsongrass",[3]; [19],50
same,"Plant response rating, Johnsongrass",[3]; [20],75
same,"Plant response rating, Foxtail, Green",[4]; [17],20
same,"Foxtail, Green plant response rating (0 to 100 scale)",[4]; [18],80
same,"Plant response rating, Foxtail, Green",[4]; [19],85
same,"Plant response rating, Foxtail, Green",[4]; [20],98
same,"Plant response rating, Cocklebur",[5]; [17],75
same,Cocklebur plant response rating (0 to 100 scale),[5]; [18],98
same,"Plant response rating, Cocklebur",[5]; [19],100
same,"Plant response rating, Cocklebur",[5]; [20],100
same,"Plant response rating, Oat, Wild",[6]; [17],0
same,"Oat, Wild plant response rating (0 to 100 scale)",[6]; [18],0
same,"Plant response rating, Oat, Wild",[6]; [19],30
same,"Plant response rating, Oat, Wild",[6]; [20],40
same,"Plant response rating, Bermudagrass",[7]; [17],70
same,Bermudagrass plant response rating (0 to 100 scale),[7]; [18],85
same,"Plant response rating, Bermudagrass",[7]; [19],90
same,"Plant response rating, Bermudagrass",[7]; [20],95
same,"Plant response rating, Foxtail, Giant",[8]; [17],70
same,"Foxtail, Giant plant response rating (0 to 100 scale)",[8]; [18],75
same,"Plant response rating, Foxtail, Giant",[8]; [19],80
same,"Plant response rating, Foxtail, Giant",[8]; [20],90
same,"Plant response rating, Pigweed",[9]; [17],100
same,Pigweed plant response rating (0 to 100 scale),[9]; [18],100
same,"Plant response rating, Pigweed",[9]; [19],100
same,"Plant response rating, Pigweed",[9]; [20],100
same,"Plant response rating, Lambsquarters",[10]; [17],98
same,Lambsquarters plant response rating (0 to 100 scale),[10]; [18],98
same,"Plant response rating, Lambsquarters",[10]; [19],100
same,"Plant response rating, Lambsquarters",[10]; [20],100
same,Ragweed plant response rating (0 to 100 scale),[11],95
same,"Plant response rating, Ragweed",[11]; 125 g ai/ha,95
same,"Plant response rating, Ragweed",[11]; 250 g ai/ha,98
same,"Plant response rating, Kochia",[12]; [17],70
same,Kochia plant response rating (0 to 100 scale),[12]; [18],75
same,"Plant response rating, Kochia",[12]; [19],85
same,"Plant response rating, Kochia",[12]; [20],98
same,"Plant response rating, Flood, Sedge, Umbrella",[13],80
same,"Plant response rating, Sedge, Umbrella",[13]; [21],60
same,"Plant response rating, Sedge, Umbrella",[13]; [22],75
same,"Sedge, Umbrella plant response rating",[13],50
same,"Plant response rating, Flood, Barnyardgrass",[14],20
same,"Plant response rating, Barnyardgrass",[14]; [21],0
same,"Plant response rating, Barnyardgrass",[14]; [22],20
same,Barnyardgrass plant response rating,[14],0
same,"Plant response rating, Flood, Ducksalad",[15],100
same,"Plant response rating, Ducksalad",[15]; [21],60
same,"Plant response rating, Ducksalad",[15]; [22],65
same,Ducksalad plant response rating,[15],50
same,"Plant response rating, Flood, Rice",[16],25
same,"Plant response rating, Rice",[16]; [21],0
same,"Plant response rating, Rice",[16]; [22],20
same,Rice plant response rating,[16],0

# Source: patent US8952024B2, “Herbicidal pyrimidone derivatives” (E I du Pont de Nemours and Company, priority 2009, dated 2015)
